16 compounds from ChEMBL document CHEMBL1777706, “Discovery of selective and orally available spiro-3-piperidyl ATP-competitive MK2 inhibitors” (Bioorg Med Chem Lett, 2011) can be followed below.

One assay has as its system THP-1. Briefly: Antiinflammatory activity in human THP1 cells assessed as inhibition of LPS-induced TNFalpha production pretreated 30 mins before LPS challenge measured after 4 hrs. The class given is functional, cell-based.
Assay [1] can be described thus: Inhibition of p38.
For assay [2], the target named is Serine/threonine-protein kinase pim-1 (Homo sapiens) (UniProt P11309). Briefly: Inhibition of PIM1 at 1 uM.
Sequence of Serine/threonine-protein kinase pim-1 (Homo sapiens) (P11309 whole entry, looked up): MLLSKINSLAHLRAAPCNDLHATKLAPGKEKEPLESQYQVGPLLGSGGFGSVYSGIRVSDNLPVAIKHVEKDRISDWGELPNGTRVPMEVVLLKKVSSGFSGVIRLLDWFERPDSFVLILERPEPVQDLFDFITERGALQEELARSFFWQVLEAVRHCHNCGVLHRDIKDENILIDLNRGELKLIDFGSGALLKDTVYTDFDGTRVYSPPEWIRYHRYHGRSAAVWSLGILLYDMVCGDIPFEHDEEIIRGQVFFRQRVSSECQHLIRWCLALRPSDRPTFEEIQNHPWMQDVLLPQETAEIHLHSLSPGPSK
In assay [3] the target is Mitogen-activated protein kinase 3 (Homo sapiens) (UniProt P27361). Nature of the assay: Inhibition of ERK1 at 1 uM.
Sequence of Mitogen-activated protein kinase 3 (Homo sapiens) (P27361 whole entry): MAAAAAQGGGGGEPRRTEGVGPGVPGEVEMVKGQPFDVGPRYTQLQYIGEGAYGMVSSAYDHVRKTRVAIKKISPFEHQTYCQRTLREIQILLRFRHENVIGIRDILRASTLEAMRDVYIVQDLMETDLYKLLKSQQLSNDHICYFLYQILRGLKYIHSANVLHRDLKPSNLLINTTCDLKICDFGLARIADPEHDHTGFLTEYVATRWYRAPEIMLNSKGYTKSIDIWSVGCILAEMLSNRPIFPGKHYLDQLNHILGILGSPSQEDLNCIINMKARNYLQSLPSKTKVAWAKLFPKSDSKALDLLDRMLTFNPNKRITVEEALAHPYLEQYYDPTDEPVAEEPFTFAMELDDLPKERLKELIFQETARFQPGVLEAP
In assay [4] the target is Serine/threonine-protein kinase pim-3 (Homo sapiens) (UniProt Q86V86). Nature of the assay: Inhibition of PIM3 at 1 uM.
Assay [5] deals with Mitogen-activated protein kinase 1 (Homo sapiens) (UniProt P28482). Nature of the assay: Inhibition of ERK2 at 1 uM.
Sequence of Mitogen-activated protein kinase 1 (Homo sapiens) (P28482 whole entry, looked up): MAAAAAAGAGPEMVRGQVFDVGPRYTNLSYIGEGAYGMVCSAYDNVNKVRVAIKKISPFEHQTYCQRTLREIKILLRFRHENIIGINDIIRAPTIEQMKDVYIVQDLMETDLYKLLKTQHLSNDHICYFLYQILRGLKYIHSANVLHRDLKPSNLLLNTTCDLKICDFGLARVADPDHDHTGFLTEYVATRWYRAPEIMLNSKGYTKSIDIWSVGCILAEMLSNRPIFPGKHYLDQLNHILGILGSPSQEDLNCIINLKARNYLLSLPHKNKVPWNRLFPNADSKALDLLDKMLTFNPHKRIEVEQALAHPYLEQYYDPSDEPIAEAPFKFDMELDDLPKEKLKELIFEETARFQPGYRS
Assay [6] addresses Serine/threonine-protein kinase Chk2 (Homo sapiens) (UniProt O96017). Briefly: Inhibition of CHK2 at 1 uM.
Assay [7] deals with T1, Serine/threonine-protein kinase 17A (Homo sapiens) (UniProt Q9UEE5).
T1 sequence (whole entry): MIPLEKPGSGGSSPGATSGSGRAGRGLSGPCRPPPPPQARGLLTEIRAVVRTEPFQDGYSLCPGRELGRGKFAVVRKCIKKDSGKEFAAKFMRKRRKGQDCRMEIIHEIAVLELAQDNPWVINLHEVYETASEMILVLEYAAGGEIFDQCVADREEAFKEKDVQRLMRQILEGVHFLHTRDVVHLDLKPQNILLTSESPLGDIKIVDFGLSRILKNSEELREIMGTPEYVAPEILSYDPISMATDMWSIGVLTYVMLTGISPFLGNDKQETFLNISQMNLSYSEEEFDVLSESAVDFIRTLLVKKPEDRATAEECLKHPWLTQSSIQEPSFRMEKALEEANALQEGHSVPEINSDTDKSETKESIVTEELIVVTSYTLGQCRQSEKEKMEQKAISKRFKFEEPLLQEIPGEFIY
Nature of the assay: Inhibition of DRAK1 at 1 uM.

In assay [8] the target is MAP kinase-activated protein kinase 2 (Homo sapiens, UniProt P49137). Briefly: Inhibition of MK2 pretreated for 30 mins before fluorescein labeled substrate peptide addition measured after 2 hrs by IMAP assay.
Sequence of MAP kinase-activated protein kinase 2 (P49137 whole entry): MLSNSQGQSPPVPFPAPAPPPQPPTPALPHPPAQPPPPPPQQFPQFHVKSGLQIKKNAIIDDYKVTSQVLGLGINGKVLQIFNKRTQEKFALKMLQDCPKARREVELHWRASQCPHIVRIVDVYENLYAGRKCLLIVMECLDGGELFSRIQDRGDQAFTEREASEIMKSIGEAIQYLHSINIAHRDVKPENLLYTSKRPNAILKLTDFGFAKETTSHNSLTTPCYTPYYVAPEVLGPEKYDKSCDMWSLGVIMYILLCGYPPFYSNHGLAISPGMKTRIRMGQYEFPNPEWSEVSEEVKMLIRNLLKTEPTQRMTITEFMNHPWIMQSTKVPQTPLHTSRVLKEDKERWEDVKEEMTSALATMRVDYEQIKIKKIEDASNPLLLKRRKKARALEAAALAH

Calls of active or inactive are those of the source. No cut-off for these calls is given here.

Sequence of Serine/threonine-protein kinase Chk2 (Homo sapiens) (O96017 whole entry): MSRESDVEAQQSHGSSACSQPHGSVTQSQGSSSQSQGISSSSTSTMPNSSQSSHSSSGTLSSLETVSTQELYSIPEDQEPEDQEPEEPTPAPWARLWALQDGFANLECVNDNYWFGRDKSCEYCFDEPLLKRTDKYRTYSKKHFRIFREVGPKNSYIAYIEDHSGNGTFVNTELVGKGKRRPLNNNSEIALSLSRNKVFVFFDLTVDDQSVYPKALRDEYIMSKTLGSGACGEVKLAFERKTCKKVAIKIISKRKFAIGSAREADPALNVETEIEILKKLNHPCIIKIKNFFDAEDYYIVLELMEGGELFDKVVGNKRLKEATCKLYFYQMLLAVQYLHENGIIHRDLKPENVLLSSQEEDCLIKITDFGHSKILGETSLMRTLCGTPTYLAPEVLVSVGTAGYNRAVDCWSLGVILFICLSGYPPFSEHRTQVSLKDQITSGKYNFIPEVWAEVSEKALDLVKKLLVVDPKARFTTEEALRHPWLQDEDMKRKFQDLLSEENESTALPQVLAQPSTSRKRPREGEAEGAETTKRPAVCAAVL

One may read the EC50 as the concentration needed to bring the measured effect to its halfway point. A word on the inhibition: it is how much of the control response was suppressed. `CC(C)(C)c1ccc(-c2nccc(-c3cc4c([nH]3)C3(CCNCC3)CNC4=O)n2)cc1`: the EC50 amounted to 5900 nM in the assay with THP-1 and 6.2 nM in [8]. In [1], the inhibition entry was “inactive”. For the same compound, the inhibition in assay [2], in assay [3], in assay [4], in assay [5], in assay [6] and in [7] was more than 80% each time.
Turning to `O=C1NCC2(CCNCC2)c2[nH]c(-c3ccnc(-c4cccnc4)n3)cc21`, the EC50 in the assay with THP-1 was more than 10000 nM; in assay [8], 1.1 nM. Also, the inhibition result in assay [1] was “inactive”. The inhibition in [2], in assay [3], in assay [4], in assay [5], in [6] and in assay [7] was more than 80% in each case.
As to `CC(=O)c1cccc(-c2nccc(-c3cc4c([nH]3)C3(CCNCC3)CNC4=O)n2)c1`, the EC50 in the assay with THP-1 was 6200 nM; in assay [8] it was 11 nM. For the same compound, the inhibition result in assay [1] was “inactive”. Further, the inhibition in assay [2], in assay [3], in [4], in assay [5], in assay [6] and in assay [7] was more than 80% in each case.
As to `CC(C)c1cccc(-c2nccc(-c3cc4c([nH]3)C3(CCNCC3)CNC4=O)n2)c1`, the figures for the EC50 (in the assay on THP-1; in assay [8]) were more than 10000 nM and 112 nM, respectively. Moreover, the inhibition entry in [1] was “inactive”. Besides, the inhibition in assay [2], in [3], in [4], in assay [5], in assay [6] and in [7] was more than 80% each time.
Consider `Nc1ccc(-c2nccc(-c3cc4c([nH]3)C3(CCNCC3)CNC4=O)n2)cn1`, for which the EC50 in the assay on THP-1 was more than 10000 nM; in assay [8] it was 15 nM. In addition, the inhibition entry in assay [1] was “inactive”. Moreover, the inhibition in assay [2], in [3], in assay [4], in [5], in [6] and in assay [7] was more than 80% in each case.
As to `O=C1NCC2(CCNCC2)c2[nH]c(-c3ccnc(-c4ccc5c(c4)OCCCO5)n3)cc21`, the EC50 with THP-1 stood at 4900 nM; in [8] it was 10 nM. For the same compound, the inhibition entry in [1] is “inactive”. Moreover, the inhibition in assay [2], in [3], in [4], in [5], in assay [6] and in assay [7] was more than 80% throughout.
On to `CCC(=O)Nc1ccc(-c2nccc(-c3cc4c([nH]3)C3(CCNCC3)CNC4=O)n2)cn1`, for which the figures for the EC50 (in the assay with THP-1; in [8]) were more than 10000 nM and 6.2 nM, respectively. The inhibition entry in [1] was “inactive”. Besides, the inhibition in assay [2], in assay [3], in assay [4], in assay [5], in [6] and in assay [7] was more than 80% each time.
Turning to `O=C1NCC2(CCNCC2)c2[nH]c(-c3ccnc(-c4cc(Cl)cc(Cl)c4)n3)cc21`, the values for the EC50 (in the assay on THP-1; in assay [8]) were 6300 nM and 4.5 nM, respectively. Further, the inhibition result in [1] is “inactive”. Moreover, the inhibition in assay [2], in [3], in assay [4], in assay [5], in assay [6] and in [7] was more than 80% each time.
Regarding `O=C1NCC2(CCNCC2)c2[nH]c(-c3ccnc(-c4ccc(C(F)(F)F)cc4)n3)cc21`, the EC50 in the assay with THP-1 was found to be 6300 nM; in assay [8] it was 6.9 nM. Besides, the inhibition result in [1] is “inactive”. Further, the inhibition in assay [2], in [3], in assay [4], in assay [5], in assay [6] and in assay [7] was more than 80% in each case.
As for `O=C1NCCc2[nH]c(-c3ccnc(-c4ccccc4F)c3)cc21`, in the assay with THP-1, the concentration for a half-maximal effect (EC50) was determined as 9100 nM. In assay [1], the inhibition entry was “inactive”. In addition, the inhibition in assay [2], in assay [4], in assay [6] and in assay [7] was more than 80% in each case.
Consider `Nc1ncc(-c2nccc(-c3cc4c([nH]3)C3(CCNCC3)CNC4=O)n2)cn1`, for which the concentration giving a half-maximal response (EC50) in the assay on THP-1 is more than 10000 nM; in assay [8], 5 nM. Besides, the inhibition result in [1] was “inactive”. In addition, the inhibition in assay [2], in [3], in assay [4], in assay [5], in [6] and in assay [7] was more than 80% each time.
Take `CC(=O)c1ccc(-c2nccc(-c3cc4c([nH]3)C3(CCNCC3)CNC4=O)n2)cc1`: the EC50 in the assay on THP-1 turned out to be 5000 nM; in assay [8], 9.8 nM. The inhibition entry in assay [1] was “inactive”. Besides, the inhibition in assay [2], in [3], in assay [4], in assay [5], in [6] and in assay [7] was more than 80% in each case.
Take `O=C1NCC2(CCNCC2)c2[nH]c(-c3ccnc(-c4ccc5ccccc5c4)n3)cc21`: the EC50 in the assay with THP-1 is 3600 nM; in assay [8], 5.1 nM. Besides, the inhibition entry in [1] is “inactive”. For the same compound, the inhibition in [2], in assay [3], in assay [4], in [5], in [6] and in [7] was more than 80% throughout.
Regarding `O=C1NCC2(CCNCC2)c2[nH]c(-c3ccnc(-c4cccc(F)c4)n3)cc21`, the EC50 in the assay on THP-1 stood at 1400 nM; in assay [8] it was 8.3 nM. In addition, the inhibition entry in assay [1] was “inactive”. Besides, the inhibition in [2], in [3], in [4], in assay [5], in [6] and in [7] was more than 80% in each case.
Take `O=C1NCC2(CCNCC2)c2[nH]c(-c3ccnc(-c4cnc(NC5CCCC5)nc4)n3)cc21`: the EC50 in the assay with THP-1 turned out to be 2600 nM; in assay [8], 4.9 nM. Besides, the inhibition result in [1] is “inactive”. Moreover, the inhibition in assay [2], in assay [3], in assay [4], in assay [5], in [6] and in assay [7] was more than 80% each time.
Take `O=C1NCC2(CCNCC2)c2[nH]c(-c3ccnc(-c4cnc5ccccc5c4)n3)cc21`: the EC50 with THP-1 turned out to be 4800 nM. Further, the inhibition entry in assay [1] is “inactive”. Moreover, the inhibition in assay [2], in assay [3], in assay [4], in [5], in [6] and in assay [7] was more than 80% throughout.
